Measurements taken from patent US8163724B2, “Glucocorticosteroids, processes for their preparation, pharmaceutical compositions containing them and their use in therapy” (AstraZeneca AB, priority 2007, dated 2012).
pIC50: −log10 of the molar value.

target: T1, recombinant human GR (Homo sapiens, UniProt P04150); assay: Human Glucocorticoid Receptor (GR) Assay (fluorescence polarization, Panvera/Invitrogen kit); assay type: binding; conditions: fluorescence polarization; GS Red tracer; 2 hours at room temperature; 100% control 10 μM Dexamethasone; read-out: Inhibition of GR binding, IC50
T1 construct: purchased Panvera/Invitrogen P2812 (kit P2893)
T1 sequence (P04150 1-777): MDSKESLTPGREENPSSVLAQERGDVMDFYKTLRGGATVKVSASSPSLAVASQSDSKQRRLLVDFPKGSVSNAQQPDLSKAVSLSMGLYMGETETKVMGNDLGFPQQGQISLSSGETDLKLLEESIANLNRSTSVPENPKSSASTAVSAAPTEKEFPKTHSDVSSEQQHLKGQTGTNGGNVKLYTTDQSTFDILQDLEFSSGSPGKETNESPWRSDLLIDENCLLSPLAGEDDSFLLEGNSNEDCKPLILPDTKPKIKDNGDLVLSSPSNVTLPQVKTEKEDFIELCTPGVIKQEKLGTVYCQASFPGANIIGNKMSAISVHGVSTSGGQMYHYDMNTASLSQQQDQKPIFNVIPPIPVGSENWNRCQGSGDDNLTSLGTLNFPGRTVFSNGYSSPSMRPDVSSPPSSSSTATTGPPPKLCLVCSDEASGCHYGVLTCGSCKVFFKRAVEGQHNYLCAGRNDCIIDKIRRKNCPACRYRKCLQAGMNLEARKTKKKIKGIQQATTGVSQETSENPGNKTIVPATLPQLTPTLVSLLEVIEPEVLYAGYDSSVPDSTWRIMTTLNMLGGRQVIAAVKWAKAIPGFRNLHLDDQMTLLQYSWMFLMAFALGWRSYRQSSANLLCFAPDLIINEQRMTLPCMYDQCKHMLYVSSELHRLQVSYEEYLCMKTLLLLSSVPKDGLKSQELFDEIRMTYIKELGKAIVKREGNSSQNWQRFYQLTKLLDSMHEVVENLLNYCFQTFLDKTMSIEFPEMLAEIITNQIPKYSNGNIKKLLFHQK
Procedure, shortened: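 Fluorescence polarization competition with recombinant GR and GS Red fluorescent ligand plus stabilizing peptide and DTT in potassium phosphate/sodium molybdate/EDTA buffer with DMSO. Incubated 2 hours at room temperature in the dark; 0% control DMSO, 100% control 10 μM dexamethasone.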

Q: `CSCSC(=O)[C@@]1(OC(C)=O)CC[C@H]2[C@@H]3CCC4=Cc5c(cnn5-c5ccc(F)cc5)C[C@]4(C)[C@H]3[C@@H](O)C[C@@]21C` [Example 118, (1R,3aS,3bS,10aR,10bS,11S,12aS)-7-(4-Fluorophenyl)-11-hydroxy-10a,12a-dimethyl-1-({[(methylsulfanyl)methyl]sulfanyl}carbonyl)-1,2,3,3a,3b,4,5,7,10,10a,10b,11,12,12a-tetradecahydrocyclopenta[5,6]naphtho[1,2-f]indazol-1-yl acetate] was tested. Which pIC50 did it give?
A: 7.74

Q: How did the pIC50 turn out when `CSCOC(=O)[C@@]1(OC(C)=O)CC[C@H]2[C@@H]3CCC4=Cc5c(cnn5-c5ccc(F)cc5)C[C@]4(C)[C@H]3[C@@H](O)C[C@@]21C` [Example 119, (Methylsulfanyl)methyl(1R,3aS,3bS,10aR,10bS,11S,12aS)-1-(acetyloxy)-7-(4-fluorophenyl)-11-hydroxy-10a,12a-dimethyl-1,2,3,3a,3b,4,5,7,10,10a,10b,11,12,12a-tetradecahydrocyclopenta[5,6]naphtho[1,2-f]indazole-1-carboxylate] was run?
A: 8.34

Q: How did the pIC50 turn out when `CSCOC(=O)[C@@]1(OCSC)CC[C@H]2[C@@H]3CCC4=Cc5c(cnn5-c5ccc(F)cc5)C[C@]4(C)[C@H]3[C@@H](O)C[C@@]21C` [Example 120, (Methylsulfanyl)methyl(1R,3aS,3bS,10aR,10bS,11S,12aS)-7-(4-fluorophenyl)-11-hydroxy-10a,12a-dimethyl-1-[(methylsulfanyl)methoxy]-1,2,3,3a,3b,4,5,7,10,10a,10b,11,12,12a-tetradecahydrocyclopenta[5,6]naphtho[1,2-f]indazole-1-carboxylate] was run?
A: 8.15

Q: With `CCSC(=O)COC(=O)[C@@]1(OC(C)=O)CC[C@H]2[C@@H]3CCC4=Cc5c(cnn5-c5ccc(F)cc5)C[C@]4(C)[C@H]3[C@@H](O)C[C@@]21C` [Example 121, 2-(Ethylsulfanyl)-2-oxoethyl(1R,3aS,3bS,10aR,10bS,11S,12aS)-1-(acetyloxy)-7-(4-fluorophenyl)-11-hydroxy-10a,12a-dimethyl-1,2,3,3a,3b,4,5,7,10,10a,10b,11,12,12a-tetradecahydrocyclopenta[5,6]naphtho[1,2-f]indazole-1-carboxylate] as the compound, how does the pIC50 read?
A: 8.18

Q: With `CC(=O)O[C@]1(C(=O)CO)CC[C@H]2[C@@H]3CCC4=Cc5c(cnn5-c5ccc(F)cc5)C[C@]4(C)[C@H]3[C@@H](O)C[C@@]21C` [Example 122, (1R,3aS,3bS,10aR,10bS,11S,12aS)-7-(4-Fluorophenyl)-11-hydroxy-1-(hydroxyacetyl)-10a,12a-dimethyl-1,2,3,3a,3b,4,5,7,10,10a,10b,11,12,12a-tetradecahydrocyclopenta[5,6]naphtho[1,2-f]indazol-1-yl acetate] as the compound, how does the pIC50 read?
A: 8.89

Q: With `CC(=O)O[C@]1(C(=O)CSC(C)=O)CC[C@H]2[C@@H]3CCC4=Cc5c(cnn5-c5ccc(F)cc5)C[C@]4(C)[C@H]3[C@@H](O)C[C@@]21C` [Example 123, (1R,3aS,3bS,10aR,10bS,11S,12aS)-1-[(Acetylsulfanyl)acetyl]-7-(4-fluorophenyl)-11-hydroxy-10a,12a-dimethyl-1,2,3,3a,3b,4,5,7,10,10a,10b,11,12,12a-tetradecahydrocyclopenta[5,6]naphtho[1,2-f]indazol-1-yl acetate] as the compound, how does the pIC50 read?
A: 8.27

Q: With `CSCC(=O)[C@@]1(OC(C)=O)CC[C@H]2[C@@H]3CCC4=Cc5c(cnn5-c5ccc(F)cc5)C[C@]4(C)[C@H]3[C@@H](O)C[C@@]21C` [Example 124, (1R,3aS,3bS,10aR,10bS,11S,12aS)-7-(4-Fluorophenyl)-11-hydroxy-10a,12a-dimethyl-1-[(methylsulfanyl)acetyl]-1,2,3,3a,3b,4,5,7,10,10a,10b,11,12,12a-tetradecahydrocyclopenta[5,6]naphtho[1,2-f]indazol-1-yl acetate] as the compound, how does the pIC50 read?
A: 8.62

Q: `CSCO[C@]1(C(=O)SCF)CC[C@H]2[C@@H]3CCC4=Cc5c(cnn5-c5ccc(F)cc5)C[C@]4(C)[C@H]3[C@@H](O)C[C@@]21C` [Example 125, S-(Fluoromethyl)(1R,3aS,3bS,10aR,10bS,11S,12aS)-7-(4-fluorophenyl)-11-hydroxy-10a,12a-dimethyl-1-[(methylsulfanyl)methoxy]1,2,3,3a,3b,4,5,7,10,10a,10b,11,12,12a-tetradecahydrocyclopenta[5,6]naphtho[1,2-f]indazole-1-carbothioate] was tested. Which pIC50 did it give?
A: 8.33

Q: With `C[C@]12Cc3cnn(-c4ccc(F)cc4)c3C=C1CC[C@@H]1[C@@H]2[C@@H](O)C[C@@]2(C)[C@H]1CC[C@]2(OC(=O)C1CCOCC1)C(=O)SCC#N` [Example 126, (1R,3aS,3bS,10aR,10bS,11S,12aS)-1-{[(Cyanomethyl)sulfanyl]carbonyl}-7-(4-fluorophenyl)-11-hydroxy-10a,12a-dimethyl-1,2,3,3a,3b,4,5,7,10,10a,10b,11,12,12a-tetradecahydrocyclopenta[5,6]naphtho[1,2-f]indazol-1-yl tetrahydro-2H-pyran-4-carboxylate] as the compound, how does the pIC50 read?
A: 8.57

Q: `C[C@]12Cc3cnn(-c4ccc(F)cc4)c3C=C1CC[C@@H]1[C@@H]2[C@@H](O)C[C@@]2(C)[C@H]1CC[C@]2(OC(=O)C1CCOCC1)C(=O)SCCO` [Example 127, (1R,3aS,3bS,10aR,10bS,11S,12aS)-7-(4-Fluorophenyl)-11-hydroxy-1-{[(2-hydroxyethyl)sulfanyl]carbonyl}-10a,12a-dimethyl-1,2,3,3a,3b,4,5,7,10,10a,10b,11,12,12a-tetradecahydrocyclopenta[5,6]naphtho[1,2-f]indazol-1-yl tetrahydro-2H-pyran-4-carboxylate] was tested. Which pIC50 did it give?
A: 8.43

Q: `CC(=O)O[C@]1(C(=O)CSC#N)CC[C@H]2[C@@H]3CCC4=Cc5c(cnn5-c5ccc(F)cc5)C[C@]4(C)[C@H]3[C@@H](O)C[C@@]21C` [Example 130, (1R,3aS,3bS,10aR,10bS,11S,12aS)-7-(4-Fluorophenyl)-11-hydroxy-10a,12a-dimethyl-1-(thiocyanatoacetyl)-1,2,3,3a,3b,4,5,7,10,10a,10b,11,12,12a-tetradecahydrocyclopenta[5,6]naphtho[1,2-f]indazol-1-yl acetate] was tested. Which pIC50 did it give?
A: 8.23

Q: How did the pIC50 turn out when `CCSCC(=O)[C@@]1(OC(C)=O)CC[C@H]2[C@@H]3CCC4=Cc5c(cnn5-c5ccc(F)cc5)C[C@]4(C)[C@H]3[C@@H](O)C[C@@]21C` [Example 131, (1R,3aS,3bS,10aR,10bS,11S,12aS)-1-[(Ethylsulfanyl)acetyl]-7-(4-fluorophenyl)-11-hydroxy-10a,12a-dimethyl-1,2,3,3a,3b,4,5,7,10,10a,10b,11,12,12a-tetradecahydrocyclopenta[5,6]naphtho[1,2-f]indazol-1-yl acetate] was run?
A: 8.39

Q: `CSSCC(=O)[C@@]1(OC(C)=O)CC[C@H]2[C@@H]3CCC4=Cc5c(cnn5-c5ccc(F)cc5)C[C@]4(C)[C@H]3[C@@H](O)C[C@@]21C` [Example 134, (1R,3aS,3bS,10aR,10bS,11S,12aS)-7-(4-Fluorophenyl)-11-hydroxy-10a,12a-dimethyl-1-[(methyldisulfanyl)acetyl]-1,2,3,3a,3b,4,5,7,10,10a,10b,11,12,12a-tetradecahydrocyclopenta[5,6]naphtho[1,2-f]indazol-1-yl acetate] was tested. Which pIC50 did it give?
A: 8.54

Q: `COC1(C(=O)O[C@]2(C(=O)SCC#N)CC[C@H]3[C@@H]4CCC5=Cc6c(cnn6-c6ccc(F)cc6)C[C@]5(C)[C@H]4[C@@H](O)C[C@@]32C)CC1` [Example 135, (1R,3aS,3bS,10aR,10bS,11S,12aS)-1-{[(Cyanomethyl)sulfanyl]carbonyl}-7-(4-fluorophenyl)-11-hydroxy-10a,12a-dimethyl-1,2,3,3a,3b,4,5,7,10,10a,10b,11,12,12a-tetradecahydrocyclopenta[5,6]naphtho[1,2-f]indazol-1-yl 1-methoxycyclopropanecarboxylate] was tested. Which pIC50 did it give?
A: 8.12

Q: With `C[C@]12Cc3cnn(-c4ccc(F)cc4)c3C=C1CC[C@@H]1[C@@H]2[C@@H](O)C[C@@]2(C)[C@H]1CC[C@]2(OC(=O)C1CCCO1)C(=O)SCF` (stereo partly drawn) [Example 137, (1R,3aS,3bS,10aR,10bS,11S,12aS)-1-{[(Fluoromethyl)sulfanyl]carbonyl}-7-(4-fluorophenyl)-11-hydroxy-10a,12a-dimethyl-1,2,3,3a,3b,4,5,7,10a,10b,11,12,12a-tetradecahydrocyclopenta[5,6]naphtho[1,2-f]indazol-1-yl (2R)-tetrahydrofuran-2-carboxylate] as the compound, how does the pIC50 read?
A: 8.55
